According to patent publication US8436004B2, “Bicycloaniline derivative” (MSD K.K., priority 2007, dated 2013):
Structures can show the parent of a compound that is named as a salt.

Tested on: Human colon cancer cells (WiDr)
Assay: Checkpoint-escape effect in gemcitabine-treated WiDr cells (phosphorylated histone H3-positive cells)
Type: cell-based
Details: gemcitabine 100 nM 24 hours, then test compound + nocodazole 8 hours
Excerpt: Pharmacological Test 3 (Method of Determining Drug Potency with Cells (Checkpoint-Escape Effect))
Fetal bovine serum (FBS) was obtained from Morgate; a medium of DMEM was from Invitrogen; gemcitabine was from Nippon Eli Lilly; nocodazole and 4′,6-diamidino-2-phenylindole were from Sigma; rabbit anti-phosphorylated histone H3 antibody was from Upstate; and fluorescence-labeled (Alexa Fluor 488) anti-rabbit IgG antibody was from Molecular Probe.
Human colon cancer cells (WiDr) were obtained from American Type Culture Collection (ATCC).
The cells were suspended in a medium of 10% FBS-added DMEM, and the cell suspension was applied to a poly-D-lysine-coated 96-well plastic plate (bought from Becton Dickinson) in an amount of 2000 cells/100 μL/well, in which the cells were incubated overnight in 5% CO2-95% air at 37° C. […] Next, this was washed with PBS, and a solution containing 4′,6-diamidino-2-phenylindole that had been diluted with 1% BSA/PBS to have a concentration 10 μg/mL and a fluorescence-labeled (Alexa Fluor 488) anti-rabbit IgG antibody that had been diluted 250-fold was added to it in an amount 50 μL/well, and reacted in a dark place at room temperature for 60 minutes. […]

`CN1Cc2cc(Nc3ncc4c(=N)n(-c5c(Cl)cccc5Cl)c(=O)[nH]c4n3)ccc2C2(CC2)C1` [Example 1, 3-(2,6-dichlorophenyl)-4-imino-7-[(2′-methyl-2′,3′-dihydro-1′H-spiro[cyclopropane-1,4′-isoquinolin]-7′-yl)amino]-3,4-dihydropyrimido[4,5-d]pyrimidin-2(1H)-one dihydrochloride] showed an EC50 of 37 nM.
